# Laboratory results: article PMC6037852, “Design of Diarylheptanoid Derivatives as Dual Inhibitors Against Class IIa Histone Deacetylase and β-amyloid Aggregation” (Frontiers in Pharmacology, 2018)
# How the values were obtained:
# HDAC6 = biological target: T1, HDAC6 (Homo sapiens, UniProt Q9UBN7); test: HDAC fluorometric activity assay, HDAC6
# T1 sequence (Q9UBN7 1-1215): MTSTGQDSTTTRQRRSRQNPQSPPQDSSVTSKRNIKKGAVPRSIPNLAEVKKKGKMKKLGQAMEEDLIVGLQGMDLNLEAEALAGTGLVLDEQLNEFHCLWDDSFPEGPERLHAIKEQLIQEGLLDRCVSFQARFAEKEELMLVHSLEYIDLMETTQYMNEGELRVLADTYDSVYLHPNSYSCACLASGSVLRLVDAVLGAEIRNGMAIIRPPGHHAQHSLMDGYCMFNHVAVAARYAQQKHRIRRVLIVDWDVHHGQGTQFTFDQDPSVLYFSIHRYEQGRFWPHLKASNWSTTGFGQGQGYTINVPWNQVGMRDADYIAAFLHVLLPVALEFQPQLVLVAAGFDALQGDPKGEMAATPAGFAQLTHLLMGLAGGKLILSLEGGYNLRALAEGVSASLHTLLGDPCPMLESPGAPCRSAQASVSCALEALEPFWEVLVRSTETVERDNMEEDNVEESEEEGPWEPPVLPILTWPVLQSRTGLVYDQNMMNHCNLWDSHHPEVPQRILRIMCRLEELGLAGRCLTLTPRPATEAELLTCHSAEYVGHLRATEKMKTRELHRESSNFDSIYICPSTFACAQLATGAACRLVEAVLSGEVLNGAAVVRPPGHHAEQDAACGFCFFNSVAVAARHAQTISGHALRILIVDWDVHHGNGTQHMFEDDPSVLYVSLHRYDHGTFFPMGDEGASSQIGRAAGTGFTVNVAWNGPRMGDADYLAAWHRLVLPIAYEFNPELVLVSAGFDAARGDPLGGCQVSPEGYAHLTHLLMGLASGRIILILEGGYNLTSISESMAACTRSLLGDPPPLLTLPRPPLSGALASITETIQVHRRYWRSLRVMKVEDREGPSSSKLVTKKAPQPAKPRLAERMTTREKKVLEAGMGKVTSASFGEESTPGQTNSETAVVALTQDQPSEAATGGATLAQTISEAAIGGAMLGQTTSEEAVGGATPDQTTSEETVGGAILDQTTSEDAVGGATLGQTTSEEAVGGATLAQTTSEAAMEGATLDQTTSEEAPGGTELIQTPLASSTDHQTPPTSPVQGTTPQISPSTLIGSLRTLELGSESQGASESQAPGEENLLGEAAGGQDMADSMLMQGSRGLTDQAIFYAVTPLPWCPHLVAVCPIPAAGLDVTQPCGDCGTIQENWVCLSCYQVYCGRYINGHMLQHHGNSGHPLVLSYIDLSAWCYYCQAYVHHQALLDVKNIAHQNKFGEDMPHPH
# Procedure: Enzyme, inhibitors and substrate were diluted with HDAC buffer (15 mM Tris-HCl pH 8.1, 0.25 mM EDTA, 250 mM NaCl, 10% v:v glycerol). Briefly, 10 μL diluted HDAC, i.e., HeLa nuclear extract (Enzo), HDAC6 (BPS), HDAC4, HDAC5 (BPS), HDAC7 (BPS) and HDAC9 (BPS), as well as 50 μL of testing compounds at different concentrations were added to each well of a 96-well microtiter plate and pre-incubated at 30°C for 5 min. […] The fluorescence in wells without test compounds (0.1% DMSO, negative control) was set as 100% enzymatic activity and the fluorescence in wells with enzyme eliminated was set as 0% enzymatic activity. The fluorescence ratio of test compounds to negative control was defined as percentage of remaining enzyme activity. The IC50 values were calculated by linear regression of the data. All experiments were performed in triplicate.
# SH-SY5Y cells [1] = test: Cytotoxicity effect on SH-SY5Y cells, alamar blue cell viability assay; format: cell-based, human; conditions: 40 μM, 24 h
# Procedure: (§1) SH-SY5Y cells were kindly provided by Professor Zhi-Hong Wen (National Sun Yat-sen University) and cultured in DMEM/F12 (Gibco, Grand Island, NY, United States) supplemented with 10% heat-inactivated fetal bovine serum and penicillin (100 U/ml)/streptomycin (100 μg/ml) (Invitrogen, Carlsbad, CA, United States) at 37°C in an atmosphere of 5% CO2.
# Cell viability was assessed using the alamar blue (7-hydroxy-10-oxidophenoxazin-10-ium-3-one) cell viability assay in 6 replicates as described previously ([Feng et al., 2016]). Briefly, 5 × 10^3 cells/well were seeded in 96-well flat-bottomed plates; 24 h later, cells were treated with compounds or DMSO as control. After 24 h of incubation, the medium was removed, 100 μL medium containing 10 μL of alamar blue was added, and cells were incubated in the 5% CO2 incubator at 37°C for 4 h. Absorbance at 570 nm was determined by Synergy HT microplate reader. The results were averaged over three different independent experiments. The cell viability was also evaluated by trypan blue exclusion test.
# SH-SY5Y cells [2] = test: Neuroprotection against H2O2-induced neurotoxicity on SH-SY5Y cells, MTT assay; format: cell-based; conditions: Homo sapiens, compound 40 μM, 500 μM H2O2, 3 h, percentage of control, H2O2 alone 34.6%, read-out: Cell viability after H2O2 exposure
# Procedure: as §1
# H2O2-induced neurotoxicity on SH-SY5Y cells was used to evaluate the neuroprotective effect ([Rafatian et al., 2012]; [Omar et al., 2017]). Briefly, a density of 2 × 10^4 SH-SY5Y cells were seeded per well in 96-well plates. After 24 h of incubation, the medium was replaced with serum free medium containing H2O2 at a concentration of 500 μM and treated with different concentrations of compounds (40, 20, and 10 μM). SH-SY5Y cells were also cultured without any treatment as control group and results were indicated by percentage of control. After 3 h, cell viability was performed by MTT assay. The cells were treated with MTT (5 mg/ml in PBS) for 4 h at 37°C. The formazan crystals were generated by viable mitochondrial succinate dehydrogenase from MTT. The supernatant was then aspirated off and the formazan crystals were dissolved with DMSO. Absorbance at 570 nm was determined by Tecan Sunrise microplate reader. The trypan blue exclusion test was also used to evaluate the neuroprotection.
Compound,IC50 (HDAC6) [µM],Cytotoxicity to SH-SY5Y cells (SH-SY5Y cells [1]),viability at 40 µM (SH-SY5Y cells [2]) [%]
O=C(/C=C/c1ccccc1)CCCCc1ccccc1 [Compound 4a],> 40,,
O=C(/C=C/c1ccc(O)cc1)CCCCc1ccccc1 [Compound 4b],> 40,,
O=C(/C=C/c1ccc(O)c(O)c1)CCCCc1ccccc1 [Compound 4c],18.3 ± 0.9,,
O=C(/C=C/c1cccc(O)c1)CCCCc1ccccc1 [Compound 4d],> 40,,
O=C(/C=C/c1cccc(O)c1O)CCCCc1ccccc1 [Compound 4e],29.4 ± 1.5,,
O=C(/C=C/c1ccc(O)c(F)c1)CCCCc1ccccc1 [Compound 4f],> 40,,
O=C(/C=C/c1ccc(O)c(Cl)c1)CCCCc1ccccc1 [Compound 4g],> 40,,
O=C(/C=C/c1ccc(O)c(Br)c1)CCCCc1ccccc1 [Compound 4h],> 40,,
O=C(/C=C/c1ccc(O)c([N+](=O)[O-])c1)CCCCc1ccccc1 [Compound 4i],> 40,,
O=C(/C=C/c1cc(O)c(O)c(O)c1)CCCCc1ccccc1 [Compound 4j],11.9 ± 0.2,did not show significant cytotoxicity,88.3
COc1cc(/C=C/C(=O)CCCCc2ccccc2)ccc1O [Compound 4k],> 40,,
O=C(CCCCc1ccccc1)CCc1ccccc1 [Compound 5a],> 40,,
O=C(CCCCc1ccccc1)CCc1ccc(O)cc1 [Compound 5b],> 40,,
O=C(CCCCc1ccccc1)CCc1ccc(O)c(O)c1 [Compound 5c],> 40,did not show significant cytotoxicity,61.3
O=C(CCCCc1ccccc1)CCc1cccc(O)c1 [Compound 5d],> 40,,
O=C(CCCCc1ccccc1)CCc1cccc(O)c1O [Compound 5e],> 40,did not show significant cytotoxicity,58.8
O=C(CCCCc1ccccc1)CCc1ccc(O)c(F)c1 [Compound 5f],> 40,,
O=C(CCCCc1ccccc1)CCc1ccc(O)c(Cl)c1 [Compound 5g],> 40,,
O=C(CCCCc1ccccc1)CCc1ccc(O)c(Br)c1 [Compound 5h],> 40,,
COc1cc(CCC(=O)CCCCc2ccccc2)ccc1O [Compound 5i],> 40,,
O=C(/C=C/c1ccc(O)c(O)c1)c1ccccc1 [Compound 7a],26.2 ± 4.3,,
O=C(/C=C/c1ccc(O)c(O)c1)Cc1ccccc1 [Compound 7b],37.2 ± 1.2,,
O=C(/C=C/c1ccc(O)c(O)c1)CCc1ccccc1 [Compound 7c],34.5 ± 2.2,,
O=C(/C=C/c1ccc(O)c(O)c1)CCCc1ccccc1 [Compound 7d],37.5 ± 1.6,,
O=C(CCc1ccc(O)c(O)c1)c1ccccc1 [Compound 8a],> 40,,
O=C(CCc1ccc(O)c(O)c1)Cc1ccccc1 [Compound 8b],> 40,,
O=C(CCc1ccccc1)CCc1ccc(O)c(O)c1 [Compound 8c],> 40,,
O=C(CCCc1ccccc1)CCc1ccc(O)c(O)c1 [Compound 8d],> 40,,
